In patent US20090030024A1, “THIAZOLES AS FUNGICIDES” (priority 2005, published 2009):

experiment: logP determination by retention times (calibration with alkan-2-ones); conditions: not given

Row | SMILES | chromatographic logP
1 | COC(=O)Nc1ccc(Nc2nccc(-c3sc(C)nc3C)n2)cc1 [Example 380, methyl-(4-{[4-(2,4-dimethyl-1,3-thiazol-5-yl)pyrimidin-2-yl]amino}phenyl)carbamate] | 1.84
2 | Cc1nc(C)c(-c2ccnc(Nc3ccc4c(c3)OCCO4)n2)s1 [Example 387, N-(2,3-dihydro-1,4-benzodioxin-6-yl)-4-(2,4-dimethyl-1,3-thiazol-5-yl)pyrimidine-2-amine] | 2.34
3 | CCc1nc(C)c(-c2ccnc(Nc3ccc4c(c3)OCCO4)n2)s1 [Example 388, N-(2,3-dihydro-1,4-benzodioxin-6-yl)-4-(2-ethyl-4-methyl-1,3-thiazol-5-yl)pyrimidine-2-amine] | 2.7
4 | Cc1nc(C(C)C)sc1-c1ccnc(Nc2ccc3c(c2)OCCO3)n1 [Example 389, N-(2,3-dihydro-1,4-benzodioxin-6-yl)-4-(2-isopropyl-4-methyl-1,3-thiazol-5-yl)pyrimidine-2-amine] | 3.16
5 | COCc1nc(C)c(-c2ccnc(Nc3ccc4c(c3)OCCO4)n2)s1 [Example 390, N-(2,3-dihydro-1,4-benzodioxin-6-yl)-4-[2-(methoxymethyl)-4-methyl-1,3-thiazol-5-yl]pyrimidine-2-amine] | 2.49
6 | COc1ccc(OC)c(Nc2nccc(-c3sc(C)nc3C)n2)c1 [Example 391, N-(2,5-dimethoxyphenyl)-4-(2,4-dimethyl-1,3-thiazol-5-yl)pyrimidine-2-amine] | 3.03
7 | Cc1nc(C(C)C)sc1-c1ccnc(Nc2ccc(F)c(F)c2)n1 [Example 401, N-(3,4-difluorophenyl)-4-(2-isopropyl-4-methyl-1,3-thiazol-5-yl)pyrimidine-2-amine] | 3.95
8 | COc1ccc(Nc2nccc(-c3sc(C)nc3C)n2)cc1OC [Example 403, N-(3,4-dimethoxyphenyl)-4-(2,4-dimethyl-1,3-thiazol-5-yl)pyrimidine-2-amine] | 2.16
9 | COCc1nc(C)c(-c2ccnc(Nc3ccc(OC)c(OC)c3)n2)s1 [Example 404, N-(3,4-dimethoxyphenyl)-4-[2-(methoxymethyl)-4-methyl-1,3-thiazol-5-yl]pyrimidine-2-amine] | 2.23
10 | COc1ccc(Nc2nccc(-c3sc(SC)nc3C)n2)cc1OC [Example 405, N-(3,4-dimethoxyphenyl)-4-[4-methyl-2-(methylthio)-1,3-thiazol-5-yl]pyrimidine-2-amine] | 2.78
11 | COc1cc(Nc2nccc(-c3sc(C)nc3C)n2)cc(OC)c1 [Example 406, N-(3,5-dimethoxyphenyl)-4-(2,4-dimethyl-1,3-thiazol-5-yl)pyrimidine-2-amine] | 2.64

same assay, conditions: * HPLC reversed-phase C18, 40° C., mobile phase 0.1% aqueous formic acid and acetonitrile, linear gradient 10% to 95% acetonitrile

Row | SMILES | logP
12 | CNc1nc(C)c(-c2ccnc(Nc3cccc(Cl)c3)n2)s1 [Example 434, N-(3-chlorophenyl)-4-[4-methyl-2-(methylamine)-1,3-thiazol-5-yl]pyrimidine-2-amine] | 2.03*

same assay, conditions: logP, * HPLC reversed-phase C18, 40° C., mobile phase 0.1% aqueous formic acid and acetonitrile, linear gradient 10% to 95% acetonitrile

Row | SMILES | chromatographic logP
13 | COc1cc(Nc2nccc(-c3sc(SC)nc3C)n2)cc(OC)c1 [Example 407, N-(3,5-dimethoxyphenyl)-4-[4-methyl-2-(methylthio)-1,3-thiazol-5-yl]pyrimidine-2-amine] | 3.39
14 | CC(=O)NCc1cccc(Nc2nccc(-c3sc(C4CC4)nc3C)n2)c1 [Example 414, N-(3-{[4-(2-cyclopropyl-4-methyl-1,3-thiazol-5-yl)pyrimidin-2-yl]amino}benzyl)acetamide] | 1.96
15 | CCc1nc(C)c(-c2ccnc(Nc3cccc(NC(C)=O)c3)n2)s1 [Example 415, N-(3-{[4-(2-ethyl-4-methyl-1,3-thiazol-5-yl)pyrimidin-2-yl]amino}phenyl)acetamide] | 2.05
16 | COc1ccc(Nc2nccc(-c3sc(C)nc3C)n2)cc1Cl [Example 416, N-(3-chloro-4-methoxyphenyl)-4-(2,4-dimethyl-1,3-thiazol-5-yl)pyrimidine-2-amine] | 2.88
17 | COCc1nc(C)c(-c2ccnc(Nc3ccc(OC)c(Cl)c3)n2)s1 [Example 419, N-(3-chloro-4-methoxyphenyl)-4-[2-(methoxymethyl)-4-methyl-1,3-thiazol-5-yl]pyrimidine-2-amine] | 2.91
18 | Cc1nc(C2CC2)sc1-c1ccnc(Nc2cccc(Cl)c2)n1 [Example 422, N-(3-chlorophenyl)-4-(2-cyclopropyl-4-methyl-1,3-thiazol-5-yl)pyrimidine-2-amine] | 3.94
19 | CCc1nc(C)c(-c2ccnc(Nc3cccc(Cl)c3)n2)s1 [Example 424, N-(3-chlorophenyl)-4-(2-ethyl-4-methyl-1,3-thiazol-5-yl)pyrimidine-2-amine] | 3.72
20 | Cc1nc(C(C)C)sc1-c1ccnc(Nc2cccc(Cl)c2)n1 [Example 425, N-(3-chlorophenyl)-4-(2-isopropyl-4-methyl-1,3-thiazol-5-yl)pyrimidine-2-amine] | 4.25
21 | COCc1nc(C)c(-c2ccnc(Nc3cccc(Cl)c3)n2)s1 [Example 432, N-(3-chlorophenyl)-4-[2-(methoxymethyl)-4-methyl-1,3-thiazol-5-yl]pyrimidine-2-amine] | 3.24
22 | Cc1nc(C(F)(F)F)c(-c2ccnc(Nc3cccc(Cl)c3)n2)s1 [Example 433, N-(3-chlorophenyl)-4-[2-methyl-4-(trifluoromethyl)-1,3-thiazol-5-yl]pyrimidine-2-amine] | 4.03
23 | CSc1nc(C)c(-c2ccnc(Nc3cccc(Cl)c3)n2)s1 [Example 435, N-(3-chlorophenyl)-4-[4-methyl-2-(methylthio)-1,3-thiazol-5-yl]pyrimidine-2-amine] | 4.08
24 | COCC(C)Nc1nc(C)c(-c2ccnc(Nc3cccc(Cl)c3)n2)s1 (stereo not drawn) [Example 437, N-(3-chlorophenyl)-4-{2-[(2-methoxy-1-methylethyl)amino]-4-methyl-1,3-thiazol-5-yl}pyrimidine-2-amine] | 2.47
25 | Cc1nc(NCC2CCCO2)sc1-c1ccnc(Nc2cccc(Cl)c2)n1 (stereo not drawn) [Example 443, N-(3-chlorophenyl)-4-{4-methyl-2-[(tetrahydrofuran-2-ylmethyl)amino]-1,3-thiazol-5-yl}pyrimidine-2-amine] | 2.36
26 | COc1cccc(Nc2nccc(-c3sc(SC)nc3C)n2)c1 [Example 449, N-(3-methoxyphenyl)-4-[4-methyl-2-(methylthio)-1,3-thiazol-5-yl]pyrimidine-2-amine] | 3.33
27 | COc1cccc(Nc2nccc(-c3sc(NCC4CCCO4)nc3C)n2)c1 (stereo not drawn) [Example 451, N-(3-methoxyphenyl)-4-{4-methyl-2-[(tetrahydrofuran-2-ylmethyl)amino]-1,3-thiazol-5-yl}pyrimidine-2-amine] | 1.94
28 | CC(=O)Nc1ccc(Nc2nccc(-c3sc(C)nc3C)n2)cc1 [Example 458, N-(4-{[4-(2,4-dimethyl-1,3-thiazol-5-yl)pyrimidin-2-yl]amino}phenyl)acetamide] | 1.62
29 | CC(=O)Nc1ccc(Nc2nccc(-c3sc(C4CC4)nc3C)n2)cc1 [Example 459, N-(4-{[4-(2-cyclopropyl-4-methyl-1,3-thiazol-5-yl)pyrimidin-2-yl]amino}phenyl)acetamide] | 2

same assay, conditions: logP, ** HPLC reversed-phase C18, 43° C., mobile phase 0.1% aqueous phosphoric acid and acetonitrile, linear gradient 10% to 95% acetonitrile

Row | SMILES | chromatographic logP
30 | Cc1nc(C)c(-c2ccnc(Nc3cccc(Cl)c3)n2)s1 [Example 421, N-(3-chlorophenyl)-4-(2,4-dimethyl-1,3-thiazol-5-yl)pyrimidine-2-amine] | 3.11
